Consider one substance from patent US20100016211A1, “Treatment of Melanoma With Alpha Thymosin Peptides” (SciClone Pharmaceuticals, Inc., priority 2007, published 2010).

Ends that are not written are not given here.

In one data set the test system is Melan-A/MART-1. Briefly: Melanoma antigen expression in B-16 cells by confocal microscopy. In kind it is cell-based, mouse. The text has this: (§1) Thymosin alpha 1 was able to up-regulate melanoma-specific antigens melan-A and MART-1 on the cell surface of mouse B-16 melanoma cells.
Data set [1] relates to stage IV metastatic melanoma. Briefly: Phase 2 multi-center open-label study: tumor response (CR, PR, RR). The data set is classed as in vivo, human. The conditions noted are these: regimen with TA1 but without IFN alpha vs both IFN alpha and TA1. From the text: (§2) This phase 2 multi-center, open-label study enrolled 488 patients with stage IV metastatic melanoma at 64 European clinical sites. The trial was designed to evaluate different dose levels of Thymosin alpha 1 (TA1). This study was in combination with DTIC chemotherapy, with and without low-dose interferon alpha, as a first-line treatment for malignant melanoma. Most patients enrolled in the trial had liver and other metastases and the remaining patients had lung metastases and skin or lymph node metastases.
(§3) A total of 488 patients (pts) (63% M1; 24% M1b; 13% M1a) were randomised into the study from 64 European sites. Demographic and baseline characteristics are shown in table 1 wherein DIT=DTIC/IFN alpha,/TA1, DT=DTIC/TA1, T=TA1, DI=DTIC/IFN alpha and ECOG PS is a patient's health performance status (PS) according to the Eastern Cooperative Oncology Group (ECOG).

The nature of data set [2]: Phase 2 multi-center open-label study: adverse events and tolerability. The arrangement: species or system human. The conditions noted are these: in vivo.
Text: as §2, §3

Data set [3] has as its system stage IV metastatic melanoma. Briefly: Phase 2 multi-center open-label study: overall survival (OS). The data set is classed as in vivo, human. The conditions noted are these: regimen with TA1 but without IFN alpha vs both IFN alpha and TA1.
Text: as §2, §3

The test system of data set [4] is stage IV metastatic melanoma. Briefly: Phase 2 multi-center open-label study: progression free survival (PFS). The data set is classed as in vivo, human. The conditions noted are these: regimen with TA1 but without IFN alpha vs both IFN alpha and TA1.
Text: as §2, §3

The next data set relates to Gp100. Kind of data set: Melanoma antigen expression in B-16 cells by confocal microscopy. In kind it is cell-based. The conditions noted are these: B-16 mouse melanoma cells, 24 h treatment, 50 μg/ml; control: +.
Text: as §1

With “thymosin alpha 1 (Ac-SDAAVDTSSEITTKDLKEKKEVVEEAEN; UniProt P06454 2-29, looked up)”, the Melan-A/MART-1 expression entry in the data set on Melan-A/MART-1 (B-16 mouse melanoma cells, 24 h treatment, 50 μg/ml, control: +) was “++ ↑”. For the same substance, the “Melanoma-specific antigens melan-A and MART-1 on the cell surface (in words)” value with Melan-A/MART-1 (mouse B-16 melanoma cells) is on record as “up-regulate”. Moreover, the “Overall tumor response (in words)” value in data set [1] is on record as “higher overall tumor response”. Moreover, the “Serious adverse events attributed to the drug (in words)” value in data set [2] is “no serious adverse events attributed to the drug”. Further, the “Median survival rate (in words)” value in data set [3] is given as “higher median survival rate”. In data set [4], the “Progression-free survival (in words)” value is “higher progression-free survival”. Besides, in the data set with Gp100, the Gp100 expression entry is given as “± ↓”.
